Test results from PMC6063787 (Nature, 2018).

Key:
[1] = target: T1, NfMCU (mitochondrial calcium uniporter ortholog) (Aspergillus fischeri, UniProt A1CWT6); test: […] flux block in proteoliposomes of purified NfMCU; type: cell-based
T1 sequence (A1CWT6 76-488): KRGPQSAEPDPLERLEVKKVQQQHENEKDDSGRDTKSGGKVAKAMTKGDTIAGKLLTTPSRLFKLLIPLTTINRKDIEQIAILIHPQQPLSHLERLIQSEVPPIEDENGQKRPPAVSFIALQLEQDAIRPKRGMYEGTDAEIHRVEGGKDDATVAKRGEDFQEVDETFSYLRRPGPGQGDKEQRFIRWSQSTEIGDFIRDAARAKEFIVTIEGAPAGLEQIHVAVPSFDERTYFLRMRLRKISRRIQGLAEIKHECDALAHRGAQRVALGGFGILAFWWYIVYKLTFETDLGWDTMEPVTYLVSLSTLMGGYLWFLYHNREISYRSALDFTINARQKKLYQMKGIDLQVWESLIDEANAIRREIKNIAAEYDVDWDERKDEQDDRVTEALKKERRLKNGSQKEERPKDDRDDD

cryo-EM structure = target: the molecule itself; test: cryo-EM structure

[NH2][Ru-3]([NH2])([NH2])([NH3+])([O]C=O)[O][Ru-2]([NH3+])([NH3+])([NH3+])([NH3+])[O]C=O [Ru360]
IC50 [1]: 0.5 µM

B1: saposin (scaffolding protein, 81 residues) (natural protein)
chain: SLPCDICKDVVTAAGDMLKDNATEEEILVYLEKTCDWLPKPNMSASCKEIVDSYLPVILDIIKGEMSRPGEVCSALNLCESLQ
stoichiometry N (cryo-EM structure): 6
